Data reported in patent publication US12595222B2, “Curcuminoids, analogs thereof, and methods of making the same” (WiSys Technology Foundation, Inc., priority 2021, dated 2026).

Test system: Epstein-Barr virus (EBV)
Experiment: EBV reactivation (viral BZLF1 gene expression) inhibition
Type: cell-based
Settings: 3 mM; compared to low expression in unactivated cells
Method: FIG. 20B illustrates EBV reactivation in the presence of the curcuminoids shown in FIG. 28A, measured by increased viral BZLF1 gene expression, is induced with a known reactivating drug, sodium butyrate (3 mM) compared to low expression in unactivated cells, in accordance with various embodiments. EBV reactivation was inhibited by five novel curcuminoids (10 μM).

For `CCCC(=O)[O-].[Na+]` [sodium butyrate], the “EBV reactivation, measured by increased viral BZLF1 gene expression” value was “induced”.
